How the values were obtained:
[1] = molecular target: T1, α2δ subunit derived from porcine brain tissue (Sus scrofa, UniProt A0A287BIN3); test: radioligand binding assay using [3H]gabapentin and the α2δ subunit; details: [3H]gabapentin radioligand binding assay described herein
T1 construct: the α2δ subunit derived from porcine brain tissue; from tissue; host or cells: porcine brain tissue
Description: wherein n is an integer of from 1 to 4, where there are stereocentres, each center may be independently R or S, preferred compounds being those of Formulae I-IV above in which n is an integer of from 2 to 4. The compounds are disclosed as being useful in treating a variety of disorders including epilepsy, faintness attacks, hypokinesia, cranial disorders, neurodegenerative disorders, depression, anxiety, panic, pain, neuropathological disorders, and sleep disorders. Certain of the compounds disclosed in that patent have high activity as measured in a radioligand binding assay using [^3H]gabapentin and the α2δ subunit derived from porcine brain tissue (Gee N. S., Brown J. P., Dissanayake V. U. K., Offord J., Thurlow R., Woodruff G. N., J. Biol. Chem., 1996;271:[…]). Results for some of the compounds are set out in the following table:
The biological activity of the compounds of the invention may be measured in a radioligand binding assay using [^3H]gabapentin and the α2δ subunit derived from porcine brain tissue (Gee N. S., Brown J. P., Dissanayake V. U. K., Offord J., Thurlow R., Woodruff G. N., ADVANCEADVANCE J. Biol. Chem., 1996;271:5879-[…]). Results may be expressed in terms of μM or nM α2δ binding affinity.

[2] = molecular target: T1, α2δ subunit derived from porcine brain tissue; details: [3H]gabapentin radioligand; compounds of WO0128978 (prior application); cited from earlier work

T1 sequence (A0A287BIN3 entry or part of it): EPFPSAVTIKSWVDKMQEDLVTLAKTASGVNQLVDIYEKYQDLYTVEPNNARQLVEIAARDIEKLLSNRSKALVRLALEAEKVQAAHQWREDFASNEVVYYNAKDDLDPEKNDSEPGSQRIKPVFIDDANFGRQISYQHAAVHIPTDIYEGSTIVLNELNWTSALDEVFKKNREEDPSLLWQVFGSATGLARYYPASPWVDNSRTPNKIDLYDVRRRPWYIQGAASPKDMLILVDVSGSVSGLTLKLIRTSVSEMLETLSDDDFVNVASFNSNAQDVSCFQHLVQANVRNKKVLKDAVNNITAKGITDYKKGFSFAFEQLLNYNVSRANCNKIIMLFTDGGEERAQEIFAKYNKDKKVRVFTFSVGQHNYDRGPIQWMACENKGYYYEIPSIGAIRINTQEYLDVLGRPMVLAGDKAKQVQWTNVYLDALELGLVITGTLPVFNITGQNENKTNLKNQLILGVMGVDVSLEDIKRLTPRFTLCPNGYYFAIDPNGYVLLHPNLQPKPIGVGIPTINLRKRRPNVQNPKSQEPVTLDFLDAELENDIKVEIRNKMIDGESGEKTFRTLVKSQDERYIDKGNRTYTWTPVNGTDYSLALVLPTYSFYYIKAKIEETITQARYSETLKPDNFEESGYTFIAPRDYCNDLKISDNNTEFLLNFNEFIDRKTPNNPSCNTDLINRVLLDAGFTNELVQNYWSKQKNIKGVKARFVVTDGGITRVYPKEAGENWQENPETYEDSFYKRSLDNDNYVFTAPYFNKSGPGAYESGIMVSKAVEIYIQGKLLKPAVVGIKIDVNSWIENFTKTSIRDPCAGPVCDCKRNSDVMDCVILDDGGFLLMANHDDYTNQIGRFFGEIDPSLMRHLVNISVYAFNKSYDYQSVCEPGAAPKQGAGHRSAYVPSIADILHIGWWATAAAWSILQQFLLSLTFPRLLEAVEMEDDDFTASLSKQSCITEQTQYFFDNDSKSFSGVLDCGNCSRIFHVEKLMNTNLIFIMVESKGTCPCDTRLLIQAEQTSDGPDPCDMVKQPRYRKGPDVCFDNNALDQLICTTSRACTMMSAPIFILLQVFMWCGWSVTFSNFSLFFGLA

## Cl.NC[C@]1(CC(=O)O)C[C@H]2CCC[C@H]21 [Example 1, [(1R,5R,6S)-6-(Aminomethyl)bicyclo[3.2.0]hept-6-yl]acetic acid hydrochloride]
other
  melting point: 198 °C
[1]
  binding affinities: 46.8 nM

## NC[C@]1(CC(=O)O)C[C@H]2CC[C@H]2C1 [(1α, 3α, 5α)(3-Aminomethyl-bicyclo[3.2.0]hept-3-yl)-acetic acid]
[2]
  α2δ binding affinity: 0.038 µM

## NCC1(CC(=O)O)C[C@H]2CC[C@@H]2C1 (racemic) [(+/−)-(1α, 5β)(3-Aminomethyl-bicyclo[3.2.0]hept-3-yl)-acetic acid]
[2]
  α2δ binding affinity: 2.86 µM

## NC[C@@]1(CC(=O)O)C[C@H]2CC[C@H]2C1 [((1α, 3β, 5α)(3-Aminomethyl-bicyclo[3.2.0]hept-3-yl)-acetic acid]
[2]
  α2δ binding affinity: 0.332 µM

## Cl.NC[C@]1(CC(=O)O)C[C@H]2CCCC[C@H]21 [Example 4, [(1R,6R,7S)-7-(Aminomethyl)bicyclo[4.2.0]oct-7-yl]acetic acid hydrochloride]
[1]
  binding affinities: 600 nM
